Holding throughout (assay type): cell-based
In assay [1] the test system is human ovarian tumor cells. Put plainly: Combination chemotherapy microtiter assay, Taxol and carboplatin (Example 4). The settings on record: then 48 hours, four tumor specimens.
Description: Twenty-four (24) hours post-plating, the chemotherapeutic agent Taxol was applied to the wells in the microtiter plates. […] Rows 5 and 9 served as a control. The Taxol exposure time was two hours. Twenty-four hours later, the cells in the wells were exposed to carboplatin for two hours. The tumor cells in the wells were then incubated for another 48 hours.
Cell number relative to control was determined.
Another assay has as its system human breast tumor cells. Briefly: Hormonal therapy microtiter assay, inhibition of cell proliferation (Example 5).
Assay [2] deals with human brain tumor and human ovarian tumor cells. Briefly: Combined modality drug/radiation microtiter assay (Example 7). The settings on record: Taxol 0.5-25.0 μM with 2 Gy, or Taxol 5 μM with 1 Gy-6 Gy; through 5 days post-treatment; four tumor specimens.
Description: Twenty-four (24) hours post-plating, cells in the microtiter plate wells were exposed to the chemotherapeutic agent Taxol. One set of plates was designed to have escalating Taxol doses with (0.5-25.0 μM) with a fixed radiation dose (2 Gy). A second set of plates was designed to have a fixed Taxol dose (5 μM) with an escalating radiation dose (1 Gy-6 Gy). The cells in the plates were irradiated using a Siemans Stabilipan X-ray machine operating at 250 kVp, 15 mA with a dose rate of 75 rad/minute.
For each of the two treatment schema, cell number per well was monitored as a function of time through 5 days post-treatment. Cell number relative to controls was determined and survival curves were fit.

With `N.N.O=C([O-])C1(C(=O)[O-])CCC1.[Pt+2]` [carboplatin], in assay [1] (Taxol 5 μM for two hours, carboplatin 50, 200, 1000 μM for two hours 24 h later), the “cell number relative to control, fixed Taxol/escalating carboplatin” value is reported as “dose response relationship was observed”.
For the compound `CC/C(=C(\c1ccccc1)c1ccc(OCCN(C)C)cc1)c1ccccc1` [Tamoxifen], the “inhibition of cell proliferation (cell number relative to control)” value in the assay with human breast tumor cells (10 nM to 20 μM, six doses, 24 hours exposure, then 72 hours, four breast tumor specimens) is “two of the four breast specimens tested showed an inhibition of cell proliferation”. Moreover, the “concentration range in which the responses occurred” value in the assay with human breast tumor cells (tested range 10 nM to 20 μM) was “mid to high”.
With `CC(=O)O[C@H]1C(=O)[C@@]2(C)[C@H]([C@H](OC(=O)c3ccccc3)[C@]3(O)C[C@H](OC(=O)[C@H](O)[C@@H](NC(=O)c4ccccc4)c4ccccc4)C(C)=C1C3(C)C)[C@]1(OC(C)=O)CO[C@@H]1C[C@@H]2O` [Taxol], in assay [1] (Taxol 1.0, 5.0, 25 μM for two hours, carboplatin 200 μM for two hours 24 h later), the “cell number relative to control, escalating Taxol/fixed carboplatin” value was “dose response relationship was observed”. Also, the “cell killing by drug combined with radiation (cell number relative to controls, survival curves)” value in assay [2] is “Both additive and synergistic cell killing”.

(Values after US6416967B2, “Method of using multicellular particulates to analyze malignant or hyperproliferative tissue” (Precision Therapeutics, Inc., priority 1996, dated 2002).)
